What all share (assay type): biochemical
The target in one assay is recombinant hSSAO (Homo sapiens (Human), UniProt Q16853). Put plainly: SSAO Activity Assay (MAO-Glo assay kit). The following applies: 40 μM substrate, 30 mins pre-incubation. As for the experimental part: (§1) The biological activities of the compounds of the present application can be assessed with methods and assays known in the art. For example, the potency of the compounds of the present application can be evaluated with an SSAO Activity Assay. Briefly, compounds of the present application can be applied to recombinant hSSAO, hMAO-A, and hMAO-B isoforms and the amine oxidase activity of the enzymes are measured after the addition and subsequent oxidation of the luminogenic substrate (e.g., with the MAO-Glo assay kit from Promega). The IC50 can be calculated, for example, by fitting the dose response curve using a 4-parameter non-linear regression routine.
Chain of recombinant hSSAO (Q16853 whole entry, canonical isoform): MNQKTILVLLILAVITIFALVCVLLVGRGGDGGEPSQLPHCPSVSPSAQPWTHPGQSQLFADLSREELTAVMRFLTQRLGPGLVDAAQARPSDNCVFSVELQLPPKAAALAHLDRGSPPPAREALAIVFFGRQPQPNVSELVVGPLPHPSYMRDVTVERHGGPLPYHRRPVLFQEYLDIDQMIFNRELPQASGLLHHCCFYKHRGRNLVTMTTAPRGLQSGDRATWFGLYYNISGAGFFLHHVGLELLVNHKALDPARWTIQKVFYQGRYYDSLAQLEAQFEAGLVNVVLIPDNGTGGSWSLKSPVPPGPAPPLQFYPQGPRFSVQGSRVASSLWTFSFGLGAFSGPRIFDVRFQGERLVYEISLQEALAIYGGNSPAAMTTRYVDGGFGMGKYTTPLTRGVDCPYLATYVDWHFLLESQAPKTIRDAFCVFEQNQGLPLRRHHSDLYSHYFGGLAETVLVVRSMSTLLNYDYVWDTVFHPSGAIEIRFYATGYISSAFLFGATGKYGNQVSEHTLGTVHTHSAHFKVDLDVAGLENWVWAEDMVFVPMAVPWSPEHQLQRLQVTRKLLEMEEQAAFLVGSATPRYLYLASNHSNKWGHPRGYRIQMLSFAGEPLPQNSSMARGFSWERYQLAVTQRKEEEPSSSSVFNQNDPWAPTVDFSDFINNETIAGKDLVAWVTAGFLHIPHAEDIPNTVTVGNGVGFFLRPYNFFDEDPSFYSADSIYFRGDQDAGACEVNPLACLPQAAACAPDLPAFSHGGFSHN
(§2) Amine oxidase activity of recombinant hSSAO, hMAO-A, and hMAO-B isoforms are measured using the MAO-Glo assay kit (Promega, V1402). Ten nL test compounds (with DMSO as vehicle, 0.1% v/v for hSSAO, hMAO-A and hMAO-B) were added into assay plates by Echo, and pre-incubated with 5 μL of enzyme for 30 mins at room temperature before the addition of 5 μL of luminogenic substrate. The substrate concentration is 40 μM for human recombinant SSAO, 40 μM for human recombinant MAO-A, and 4 μM for human recombinant MAO-B. The hSSAO and hMAO-A assays were conducted in the MAO-A reaction buffer in the kit, and the MAO-B assay was conducted in the MAO-B reaction buffer. Oxidation of the substrate was conducted for 1 hr, before the addition of detecting reagent according the manufacture's protocol. The IC50 value of the tested compounds was calculated by fitting the dose response curve using a 4-parameter non-linear regression routine.

The target of another assay is recombinant hMAO-A (Homo sapiens (Human), UniProt P21397). Put plainly: MAO-A activity assay (MAO-Glo assay kit). The following applies: 40 μM substrate, 30 mins pre-incubation. As for the experimental part:
as §1, §2

The next assay deals with recombinant hMAO-B (Homo sapiens (Human), UniProt P27338). Put plainly: MAO-B activity assay (MAO-Glo assay kit). The note with it: 4 μM substrate, 30 mins pre-incubation. As for the experimental part: as §1, §2
Chain of recombinant hMAO-B (P27338 whole entry): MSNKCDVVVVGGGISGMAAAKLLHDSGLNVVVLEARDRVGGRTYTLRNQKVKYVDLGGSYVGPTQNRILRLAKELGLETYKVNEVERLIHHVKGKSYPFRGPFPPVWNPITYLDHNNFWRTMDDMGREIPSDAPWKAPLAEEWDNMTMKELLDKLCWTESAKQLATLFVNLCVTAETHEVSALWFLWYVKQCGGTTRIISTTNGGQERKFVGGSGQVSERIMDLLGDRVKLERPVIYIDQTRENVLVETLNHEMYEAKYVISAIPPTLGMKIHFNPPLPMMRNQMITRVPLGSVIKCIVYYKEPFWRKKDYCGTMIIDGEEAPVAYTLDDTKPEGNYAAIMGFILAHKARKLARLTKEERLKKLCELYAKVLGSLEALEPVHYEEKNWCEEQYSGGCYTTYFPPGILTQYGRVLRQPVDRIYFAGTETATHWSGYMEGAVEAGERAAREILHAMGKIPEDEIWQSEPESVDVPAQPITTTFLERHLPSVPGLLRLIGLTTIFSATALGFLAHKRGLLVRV

Chain of recombinant hMAO-A (P21397 whole entry): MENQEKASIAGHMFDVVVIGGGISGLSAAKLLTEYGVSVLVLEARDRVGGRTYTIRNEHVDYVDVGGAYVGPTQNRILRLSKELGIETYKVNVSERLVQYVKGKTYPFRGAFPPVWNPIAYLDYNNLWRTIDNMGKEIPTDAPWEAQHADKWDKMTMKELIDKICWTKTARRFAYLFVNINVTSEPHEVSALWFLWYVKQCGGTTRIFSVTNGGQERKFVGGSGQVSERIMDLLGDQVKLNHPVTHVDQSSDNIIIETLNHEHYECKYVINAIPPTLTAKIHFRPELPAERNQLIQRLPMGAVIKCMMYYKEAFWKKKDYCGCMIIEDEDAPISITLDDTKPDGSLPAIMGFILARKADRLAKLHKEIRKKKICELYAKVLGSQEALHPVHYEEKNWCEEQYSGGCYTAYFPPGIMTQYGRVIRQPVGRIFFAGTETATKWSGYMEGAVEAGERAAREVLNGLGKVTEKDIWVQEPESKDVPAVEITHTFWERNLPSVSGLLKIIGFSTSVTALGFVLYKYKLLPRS

Regarding `NC/C(=C\F)COc1ccc(S(=O)(=O)CC23CCC(NC(=O)C4CCC4)(CC2)CC3)cc1` [Compound 92, (E)-N-(4-(((4-((2-(aminomethyl)-3-fluoroallyl)oxy)phenyl)sulfonyl)methyl)bicyclo[2.2.2]octan-1-yl)cyclobutanecarboxamide], the half-maximal inhibitory concentration (IC50) – broadly, the point on the concentration scale where inhibition reaches its midpoint – at recombinant hSSAO was under 0.02 µM; on recombinant hMAO-A, over 30 µM; at recombinant hMAO-B, 10 to 30 µM.
As to `NC/C(=C\F)COc1ccc(S(=O)(=O)CC23CCC(C(=O)NC4CC(F)(F)C4)(CC2)CC3)cc1` [Compound 69, (E)-4-(((4-((2-(aminomethyl)-3-fluoroallyl)oxy)phenyl)sulfonyl)methyl)-N-(3,3-difluorocyclobutyl)bicyclo[2.2.2] octane-1-carboxamide], the IC50 on recombinant hSSAO was under 0.02 µM; on recombinant hMAO-A, over 30 µM; at recombinant hMAO-B, 10 to 30 µM.
Taken in the same sequence, the figures for `CC(C)(C)C(=O)NC12CC(CS(=O)(=O)c3ccc(OC/C(=C/F)CN)cc3)(C1)C2` [Compound 77, (E)-N-(3-(((4-((2-(aminomethyl)-3-fluoroallyl)oxy)phenyl)sulfonyl)methyl)bicyclo[1.1.1]pentan-1-yl)pivalamide] were under 0.02 µM, over 30 µM and over 30 µM.
In the same order, the values of `CC(C)NC(=O)C1CCC(CS(=O)(=O)c2ccc(OC/C(=C/F)CN)cc2)CC1` (stereo not drawn) [Compound 144, (E)-4-(((4-((2-(aminomethyl)-3-fluoroallyl)oxy)phenyl)sulfonyl)methyl)-N-isopropylcyclohexane-1-carboxamide] are 0.02 to 0.1 µM, over 30 µM and under 10 µM.
Taken in the same sequence, the figures for `NC/C(=C\F)COc1ccc(S(=O)(=O)CCN2CCCCC2=O)cc1` [Compound 107, (E)-1-(2-((4-((2-(aminomethyl)-3-fluoroallyl)oxy)phenyl)sulfonyl)ethyl) piperidin-2-one] were under 0.02 µM, over 30 µM and under 10 µM.
For the compound `CC1(CS(=O)(=O)c2ccc(OC/C(=C/F)CN)cc2)CCN(C(=O)C2(C)CCC2)CC1` [Compound 56, (E)-(4-(((4-((2-(aminomethyl)-3-fluoroallyl)oxy)phenyl)sulfonyl)methyl)-4-methylpiperidin-1-yl)(1-methylcyclobutyl)methanone], the IC50 at recombinant hSSAO is 0.02 to 0.1 µM; on recombinant hMAO-A it was over 30 µM; on recombinant hMAO-B it was 10 to 30 µM.
In the same order, the values of `NC/C(=C\F)COc1ccc(S(=O)(=O)CC23CCC(NC(=O)C4CC4(F)F)(CC2)CC3)cc1` (stereo not drawn) [Compound 84, (E)-N-(4-(((4-((2-(aminomethyl)-3-fluoroallyl)oxy)phenyl)sulfonyl)methyl)bicyclo[2.2.2]octan-1-yl)-2,2-difluorocyclopropane-1-carboxamide] are under 0.02 µM, over 30 µM and 10 to 30 µM.
With `CC(CN1C(=O)CCC1(C)C)CS(=O)(=O)c1ccc(OC/C(=C/F)CN)cc1` (stereo not drawn) [Compound 111, (E)-1-(3-((4-((2-(aminomethyl)-3-fluoroallyl)oxy)phenyl)sulfonyl)-2-methylpropyl)-5,5-dimethylpyrrolidin-2-one], the 50% inhibitory concentration (IC50) at recombinant hSSAO is 0.02 to 0.1 µM; on recombinant hMAO-A, over 30 µM; on recombinant hMAO-B, 10 to 30 µM.
Taken in the same sequence, the figures for `CC1(CS(=O)(=O)c2ccc(OC/C(=C/F)CN)cc2)CCN(C(=O)C2(C(F)(F)F)CC2)CC1` [Compound 55, (E)-(4-(((4-((2-(aminomethyl)-3-fluoroallyl)oxy)phenyl)sulfonyl)methyl)-4-methylpiperidin-1-yl)(1-(trifluoromethyl)cyclopropyl) methanone] were 0.02 to 0.1 µM, over 30 µM and 10 to 30 µM.
Taken in the same sequence, the figures for `CC1(C)CC(=O)N(CS(=O)(=O)c2ccc(OC/C(=C/F)CN)cc2)C1` [Compound 126, (E)-1-(((4-((2-(aminomethyl)-3-fluoroallyl)oxy)phenyl)sulfonyl)methyl)-4,4-dimethylpyrrolidin-2-one] were 0.1 to 0.5 µM, over 30 µM and 10 to 30 µM.
In the same order, the values of `NC/C(=C\F)COc1ccc(S(=O)(=O)CN2CCC3(CCCC3)C2=O)c(F)c1` [Compound 128, (E)-2-(((4-((2-(aminomethyl)-3-fluoroallyl)oxy)-2-fluorophenyl)sulfonyl)methyl)-2-azaspiro[4.4]nonan-1-one] are 0.1 to 0.5 µM, over 30 µM and over 30 µM.
For `NC/C(=C/F)COc1ccc(S(=O)(=O)CC23CCC(C(=O)NC4CCC4)(CC2)CC3)cc1` [Compound 140, (Z)-4-(((4-((2-(aminomethyl)-3-fluoroallyl)oxy)phenyl)sulfonyl)methyl)-N-cyclobicyclo[2.2.2]octane-1-carboxamide], the values for the IC50 at recombinant hSSAO, on recombinant hMAO-A and on recombinant hMAO-B were under 0.02 µM, over 30 µM and over 30 µM, respectively.
As to `N#CC1(CS(=O)(=O)c2ccc(OC/C(=C/F)CN)cc2F)CCOCC1` [compound 13, (E)-4-(((4-((2-(aminomethyl)-3-fluoroallyl)oxy)-2-fluorophenyl)sulfonyl)methyl) tetrahydro-2H-pyran-4-carbonitrile], the figures for the IC50 at recombinant hSSAO, on recombinant hMAO-A and at recombinant hMAO-B were 0.02 to 0.1 µM, 10 to 30 µM and 10 to 30 µM, respectively.
Turning to `NC/C(=C\F)COc1ccc(S(=O)(=O)CC23CCC(C(=O)N4CCC4)(CC2)CC3)cc1` [Compound 71], the figures for the IC50 at recombinant hSSAO, on recombinant hMAO-A and at recombinant hMAO-B were under 0.02 µM, over 30 µM and 10 to 30 µM, respectively.
Taken in the same sequence, the figures for `CCN(CC)C(=O)C12CCC(CS(=O)(=O)c3ccc(OC/C(=C/F)CN)cc3)(CC1)CC2` [Compound 74, (E)-4-(((4-((2-(aminomethyl)-3-fluoroallyl)oxy)phenyl)sulfonyl)methyl)-N,N-diethylbicyclo[2.2.2] octane-1-carboxamide] were 0.02 to 0.1 µM, over 30 µM and over 30 µM.
Taken in the same sequence, the figures for `NC/C(=C\F)COc1ccc(S(=O)(=O)CC23CCC(NC(=O)C4(F)CC4)(CC2)CC3)cc1` [Compound 86, (E)-N-(4-(((4-((2-(aminomethyl)-3-fluoroallyl)oxy)phenyl)sulfonyl)methyl)bicyclo[2.2.2]octan-1-yl)-1-fluorocyclopropane-1-carboxamide] were under 0.02 µM, over 30 µM and under 10 µM.
Taken in the same sequence, the figures for `NC/C(=C\F)COc1ccc(S(=O)(=O)CN2CCOCC2=O)cc1` [Compound 130, (E)-4-(((4-((2-(aminomethyl)-3-fluoroallyl)oxy)phenyl)sulfonyl)methyl)morpholin-3-one] were 0.02 to 0.1 µM, over 30 µM and over 30 µM.
`NC/C(=C\F)COc1ccc(S(=O)(=O)CC2CCN(C(=O)CC(F)(F)F)CC2)c(F)c1` [Compound 59, (E)-1-(4-(((4-((2-(aminomethyl)-3-fluoroallyl)oxy)-2-fluorophenyl)sulfonyl)methyl)piperidin-1-yl)-3,3,3-trifluoropropan-1-one]: the half-inhibitory concentration (IC50) at recombinant hSSAO is 0.02 to 0.1 µM; on recombinant hMAO-A, over 30 µM; on recombinant hMAO-B, over 30 µM.
In the case of `NC/C(=C\F)COc1ccc(S(=O)(=O)CC23CCC(C(=O)N4CCCC4)(CC2)CC3)cc1` [Compound 61, (E)-(4-(((4-((2-(aminomethyl)-3-fluoroallyl)oxy)phenyl)sulfonyl)methyl)bicyclo[2.2.2]octan-1-yl)(pyrrolidin-1-yl)methanone], the IC50 at recombinant hSSAO is under 0.02 µM; on recombinant hMAO-A, over 30 µM; on recombinant hMAO-B it was 10 to 30 µM.
Turning to `NC/C(=C\F)COc1ccc(S(=O)(=O)CC23CCC(C(=O)N4CC(F)(F)C4)(CC2)CC3)cc1` [Compound 72], the IC50 is under 0.02 µM at recombinant hSSAO, over 30 µM at recombinant hMAO-A and over 30 µM on recombinant hMAO-B.
Consider `NC/C(=C\F)COc1ccc(S(=O)(=O)CC23CCC(C(=O)NC4CC4)(CC2)CC3)cc1` [Compound 75, (E)-4-(((4-((2-(aminomethyl)-3-fluoroallyl)oxy)phenyl)sulfonyl)methyl)-N-cyclopropylbicyclo[2.2.2]octane-1-carboxamide], for which the IC50 at recombinant hSSAO is under 0.02 µM; on recombinant hMAO-A it was over 30 µM; at recombinant hMAO-B, 10 to 30 µM.
Taken in the same sequence, the figures for `CC1(C)CCN(CS(=O)(=O)c2ccc(OC/C(=C/F)CN)cc2)C1=O` [Compound 125, (E)-1-(((4-((2-(aminomethyl)-3-fluoroallyl)oxy)phenyl)sulfonyl)methyl)-3,3-dimethylpyrrolidin-2-one] were 0.02 to 0.1 µM, over 30 µM and under 10 µM.
In the same order, the values of `NC/C(=C\F)COc1ccc(S(=O)(=O)CC2CCN(C(=O)C3CCC3)CC2)cc1` [Compound 50, (E)-(4-(((4-((2-(aminomethyl)-3-fluoroallyl)oxy)phenyl)sulfonyl)methyl)piperidin-1-yl)(cyclobutyl)methanone] are 0.02 to 0.1 µM, over 30 µM and over 30 µM.

Source of the values: patent US11472769B2, “SSAO inhibitors and use thereof” (Eccogene (Shanghai) Co., Ltd., priority 2019, dated 2022).
